In patent publication US10618903B2, “Heteroaryl substituted aminopyridine compounds” (BRISTOL-MYERS SQUIBB COMPANY, priority 2015, dated 2020):

Columns and labels:
IRAK4 = IRAK4 (Homo sapiens (Human), UniProt Q9NWZ3); test: IRAK4 Inhibition Assay; type: biochemical; settings: ATP 500 μM; IRAK4 0.6 nM
Method in brief: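 Enzyme 0.6 nM, ATP 500 μM, FL-peptide 1.5 μM, DMSO 1.6%; HEPES pH 7.2/MgCl2/Brij 35/DTT buffer. RT, 60 min, EDTA stop. Mobility-shift product/substrate ratio; % inhib vs no-enzyme and vehicle controls.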

Caco Permeability Assay = type: in vitro ADME; settings: human, Caco-2, Caco-2 cells, 3 μM compound
[1] = test system: IL-6 levels in human whole blood stimulated with a TLR2 agonist; test: IRAK4 Whole Blood Assay (lipoteichoic acid/TLR2-stimulated IL-6); type: cell-based; settings: Homo sapiens, lipoteichoic acid 10 μg/mL, IL-6 readout
Method in brief: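 ACD-A-anticoagulated human whole blood was preincubated with compounds for 60 min at 37 °C under 5% CO2. It was then stimulated with 10 μg/mL lipoteichoic acid (final) in RPMI for 5 h. IL-6 in plasma supernatants was measured by flow cytometry bead assay.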

Chain of IRAK4 (Q9NWZ3 whole entry): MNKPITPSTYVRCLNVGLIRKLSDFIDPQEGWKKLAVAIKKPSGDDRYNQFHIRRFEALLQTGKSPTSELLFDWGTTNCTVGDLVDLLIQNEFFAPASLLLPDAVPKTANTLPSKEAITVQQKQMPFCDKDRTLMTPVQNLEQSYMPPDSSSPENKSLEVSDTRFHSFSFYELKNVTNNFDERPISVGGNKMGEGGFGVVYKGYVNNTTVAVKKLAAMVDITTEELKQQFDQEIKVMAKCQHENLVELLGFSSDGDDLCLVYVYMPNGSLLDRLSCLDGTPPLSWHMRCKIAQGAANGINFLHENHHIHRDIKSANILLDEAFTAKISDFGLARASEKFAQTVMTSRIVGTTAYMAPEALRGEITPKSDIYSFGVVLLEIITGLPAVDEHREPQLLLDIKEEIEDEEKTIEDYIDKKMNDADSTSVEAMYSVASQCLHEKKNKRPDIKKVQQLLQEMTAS

IC50 (IRAK4) | Papp at 2 h, 3 µM (Caco Permeability Assay) | EC50 [1] | SMILES
3 nM | < 1.5 ×10⁻⁶ cm/s | 80 nM | CC(C)(O)[C@H](F)CNC(=O)c1cnc(-c2cnc3cc(C#N)cnn23)cc1Nc1cnn(CC(F)F)c1 [Example 260, (R)-6-(7-cyanoimidazo[1,2-b]pyridazin-3-yl)-4-((1-(2,2-difluoroethyl)-1H-pyrazol-4-yl)amino)-N-(2-fluoro-3-hydroxy-3-methylbutyl) nicotinamide]
1 nM | 2.6 ×10⁻⁶ cm/s | 520 nM | CC(C)(O)[C@H](F)CNC(=O)c1cnc(-c2cnc3cc(Cl)cnn23)cc1Nc1cnn(CC(F)F)c1 [Example 262, (R)-6-(7-chloroimidazo[1,2-b]pyridazin-3-yl)-4-((1-(2,2-difluoroethyl)-1H-pyrazol-4-yl)amino)-N-(2-fluoro-3-hydroxy-3-methylbutyl)nicotinamide]
2 nM | 21.3 ×10⁻⁶ cm/s | 300 nM | CC(C)(F)[C@H](F)CNC(=O)c1cnc(-c2cnc3cc(Cl)cnn23)cc1Nc1cnn(CC(F)F)c1 [Example 263, (R)-6-(7-chloroimidazo[1,2-b]pyridazin-3-yl)-N-(2,3-difluoro-3-methylbutyl)-4-((1-(2,2-difluoroethyl)-1H-pyrazol-4-yl)amino)nicotinamide]
3 nM | 2.9 ×10⁻⁶ cm/s | 570 nM | CCn1cc(Nc2cc(-c3cnc4cc(Cl)cnn34)ncc2C(=O)NC[C@@H](F)C(C)(C)O)cn1 [Example 266, (R)-6-(7-chloroimidazo[1,2-b]pyridazin-3-yl)-4-((1-ethyl-1H-pyrazol-4-yl)amino)-N-(2-fluoro-3-hydroxy-3-methylbutyl) nicotinamide]
3 nM | 7.8 ×10⁻⁶ cm/s | 820 nM | CC(C)(O)[C@H](F)CNC(=O)c1cnc(-c2cnc3cc(Cl)cnn23)cc1Nc1cnn(C(F)F)c1 [Example 270, (R)-6-(7-chloroimidazo[1,2-b]pyridazin-3-yl)-4-((1-(difluoromethyl)-1H-pyrazol-4-yl)amino)-N-(2-fluoro-3-hydroxy-3-methylbutyl) nicotinamide]
2 nM | 3.6 ×10⁻⁶ cm/s | 490 nM | CC(C)(O)[C@H](F)CNC(=O)c1cnc(-c2cnc3cc(Cl)cnn23)cc1Nc1cnn(C2CC(F)(F)C2)c1 [Example 277, (R)-6-(7-chloroimidazo[1,2-b]pyridazin-3-yl)-4-((1-(3,3-difluorocyclobutyl)-1H-pyrazol-4-yl)amino)-N-(2-fluoro-3-hydroxy-3-methylbutyl)nicotinamide]

The next lines start with the compound.

SMILES | IC50 (IRAK4) | Papp at 2 h, 3 µM (Caco Permeability Assay) | EC50 [1]
CC(C)(O)[C@H](F)CNC(=O)c1cnc(-c2cnn3cc(C#N)cnc23)cc1Nc1cnn(CC2CC2)c1 [Example 249, (R)-6-(6-cyanopyrazolo[1,5-a]pyrimidin-3-yl)-4-((1-(cyclopropylmethyl)-1H-pyrazol-4-yl)amino)-N-(2-fluoro-3-hydroxy-3-methylbutyl)nicotinamide] | 2 nM | < 1.5 ×10⁻⁶ cm/s | 400 nM
CC(C)(O)[C@H](F)CNC(=O)c1cnc(-c2cnn3cc(Cl)cnc23)cc1Nc1cnn(C2CCC2)c1 [Example 250, (R)-6-(6-chloropyrazolo[1,5-a]pyrimidin-3-yl)-4-((1-cyclobutyl-1H-pyrazol-4-yl)amino)-N-(2-fluoro-3-hydroxy-3-methylbutyl)nicotinamide] | 1 nM | 6.6 ×10⁻⁶ cm/s | 200 nM
CC(C)(O)[C@H](F)CNC(=O)c1cnc(-c2cnn3cc(Cl)cnc23)cc1Nc1cnn(CC2CC2)c1 [Example 251, (R)-6-(6-chloropyrazolo[1,5-a]pyrimidin-3-yl)-4-((1-(cyclopropylmethyl)-1H-pyrazol-4-yl)amino)-N-(2-fluoro-3-hydroxy-3-methylbutyl)nicotinamide] | 1 nM | 7.6 ×10⁻⁶ cm/s | 410 nM
CC(C)(O)CCNC(=O)c1cnc(-c2cnn3cc(Cl)cnc23)cc1Nc1cnn(CC(F)F)c1 [Example 253, 6-(6-chloropyrazolo[1,5-a]pyrimidin-3-yl)-4-((1-(2,2-difluoroethyl)-1H-pyrazol-4-yl)amino)-N-(3-hydroxy-3-methylbutyl)nicotinamide] | 1 nM | 4.8 ×10⁻⁶ cm/s | 160 nM
CC(C)(F)[C@H](F)CNC(=O)c1cnc(-c2cnc3cc(C#N)cnn23)cc1Nc1cnn(CC(F)F)c1 [Example 258, (R)-6-(7-cyanoimidazo[1,2-b]pyridazin-3-yl)-N-(2,3-difluoro-3-methylbutyl)-4-((1-(2,2-difluoroethyl)-1H-pyrazol-4-yl)amino)nicotinamide] | 2 nM | 5.9 ×10⁻⁶ cm/s | 180 nM
CC(C)(O)[C@H](F)CNC(=O)c1cnc(-c2cnc3cc(C#N)cnn23)cc1Nc1cnn(C2CC(F)(F)C2)c1 [Example 259, (R)-6-(7-cyanoimidazo[1,2-b]pyridazin-3-yl)-4-((1-(3,3-difluorocyclobutyl)-1H-pyrazol-4-yl)amino)-N-(2-fluoro-3-hydroxy-3-methylbutyl)nicotinamide] | 2 nM | < 1.5 ×10⁻⁶ cm/s | 130 nM
CC(F)(F)Cn1cc(Nc2cc(-c3cnc4cc(C#N)cnn34)ncc2C(=O)NC[C@@H](F)C(C)(C)O)cn1 [Example 265, (R)-6-(7-cyanoimidazo[1,2-b]pyridazin-3-yl)-4-((1-(2,2-difluoropropyl)-1H-pyrazol-4-yl)amino)-N-(2-fluoro-3-hydroxy-3-methylbutyl)nicotinamide] | 2 nM | < 1.5 ×10⁻⁶ cm/s | 440 nM
CCn1cc(Nc2cc(-c3cnc4cc(C#N)cnn34)ncc2C(=O)NC[C@@H](F)C(C)(C)O)cn1 [Example 267, (R)-6-(7-cyanoimidazo[1,2-b]pyridazin-3-yl)-4-((1-ethyl-1H-pyrazol-4-yl)amino)-N-(2-fluoro-3-hydroxy-3-methylbutyl)nicotinamide] | 2 nM | < 1.5 ×10⁻⁶ cm/s | 130 nM
CCCn1cc(Nc2cc(-c3cnc4cc(C#N)cnn34)ncc2C(=O)NC[C@@H](F)C(C)(C)O)cn1 [Example 278, (R)-6-(7-cyanoimidazo[1,2-b]pyridazin-3-yl)-N-(2-fluoro-3-hydroxy-3-methylbutyl)-4-((1-propyl-1H-pyrazol-4-yl)amino)nicotinamide] | 1 nM | < 1.5 ×10⁻⁶ cm/s | 360 nM
CC(C)(F)Cn1cc(Nc2cc(-c3cnc4cc(C#N)cnn34)ncc2C(=O)NC[C@@H](F)C(C)(C)O)cn1 [Example 279, (R)-6-(7-cyanoimidazo[1,2-b]pyridazin-3-yl)-4-((1-(2-fluoro-2-methylpropyl)-1H-pyrazol-4-yl)amino)-N-(2-fluoro-3-hydroxy-3-methylbutyl)nicotinamide] | 1 nM | < 1.5 ×10⁻⁶ cm/s | 780 nM
CC(C)(O)[C@H](F)CNC(=O)c1cnc(-c2cnc3cc(C#N)cnn23)cc1Nc1cc2n(n1)CCN(CC(F)F)C2 [Example 280, (R)-6-(7-cyanoimidazo[1,2-b]pyridazin-3-yl)-4-((5-(2,2-difluoroethyl)-4,5,6,7-tetrahydropyrazolo[1,5-a]pyrazin-2-yl)amino)-N-(2-fluoro-3-hydroxy-3-methylbutyl)nicotinamide] | 6 nM | < 1.5 ×10⁻⁶ cm/s | 330 nM
